In PubChem BioAssay AID328 (DTP/NCI, 2004):
Values joined by “and” are separate entries in the source; they are usually repeats but may differ in a detail not shown here. Equal values may be shown once. Toxic doses and inconclusive results are not listed.

Tested on: BDF1 mice, P388 leukemia ip, median survival T/C
Test: NCI In Vivo Anticancer Drug Screen. Data for tumor model P388 Leukemia (intraperitoneal) in B6D2F1 (BDF1) mice
Details: endpoint: median survival time, higher = longer survival
Method in brief: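 Transplantable tumour in mice; compound vs vehicle dosing; survival scored; ratio of treated to control reported.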

[1] = dose: 50.0 mg/kg/injection, schedule: Q04DX003 (ip), vehicle: Klucel (hydroxypropylcellulose) (HPC)
[2] = dose: 100.0 mg/kg/injection, schedule: Q01DX009 (ip), vehicle: Klucel (hydroxypropylcellulose) (HPC)
[3] = dose: 100.0 mg/kg/injection, schedule: Q04DX003 (ip), vehicle: Klucel (hydroxypropylcellulose) (HPC)
[4] = dose: 50.0 mg/kg/injection, schedule: Q01DX009 (ip), vehicle: saline with Tween-80
[5] = dose: 12.5 mg/kg/injection, schedule: Q01DX009 (ip), vehicle: saline
[6] = dose: 25.0 mg/kg/injection, schedule: Q01DX009 (ip), vehicle: saline
[7] = dose: 50.0 mg/kg/injection, schedule: Q01DX009 (ip), vehicle: saline
[8] = dose: 100.0 mg/kg/injection, schedule: Q01DX009 (ip), vehicle: saline
[9] = dose: 100.0 mg/kg/injection, schedule: Q01DX009 (ip), vehicle: saline with Tween-80
[10] = dose: 200.0 mg/kg/injection, schedule: Q01DX009 (ip), vehicle: saline with Tween-80
[11] = dose: 100.0 mg/kg/injection, schedule: Q04DX003 (ip), vehicle: saline with Tween-80
[12] = dose: 200.0 mg/kg/injection, schedule: Q04DX003 (ip), vehicle: saline with Tween-80
[13] = dose: 400.0 mg/kg/injection, schedule: Q04DX003 (ip), vehicle: saline with Tween-80

Structure (SMILES): C#CC[N+]1=CN(c2ccc(C)cc2)Cc2cc(C)ccc21
- T/C (dose: 25.0 mg/kg/injection, schedule: Q04DX003 (ip), vehicle: Klucel (hydroxypropylcellulose) (HPC)): 105 % of control
- T/C (dose: 50.0 mg/kg/injection, schedule: Q01DX009 (ip), vehicle: Klucel (hydroxypropylcellulose) (HPC)): 122 % of control
- T/C [1]: 100 % of control
- T/C [2]: 122 % of control
- T/C [3]: 95 % of control and 100 % of control and 109 % of control
- T/C (dose: 150.0 mg/kg/injection, schedule: Q04DX003 (ip), vehicle: Klucel (hydroxypropylcellulose) (HPC)): 100 % of control and 110 % of control
- T/C (dose: 225.0 mg/kg/injection, schedule: Q04DX003 (ip), vehicle: Klucel (hydroxypropylcellulose) (HPC)): 110 % of control

Structure (SMILES): C=CCOCC(O)CN(CCCC)CCCC (centres undefined)
- T/C (dose: 12.5 mg/kg/injection, schedule: Q01DX009 (ip), vehicle: saline with Tween-80): 95 % of control
- T/C (dose: 25.0 mg/kg/injection, schedule: Q01DX009 (ip), vehicle: saline with Tween-80): 95 % of control
- T/C [4]: 105 % of control

Structure (SMILES): O=C(O)CCCCCNC(=O)c1ccccc1
- T/C [1]: 118 % of control
- T/C (dose: 100.0 mg/kg/injection, schedule: Q01DX001 (ip), vehicle: Klucel (hydroxypropylcellulose) (HPC)): 100 % of control
- T/C [3]: 100 % of control
- T/C (dose: 200.0 mg/kg/injection, schedule: Q01DX001 (ip), vehicle: Klucel (hydroxypropylcellulose) (HPC)): 104 % of control
- T/C (dose: 200.0 mg/kg/injection, schedule: Q04DX003 (ip), vehicle: Klucel (hydroxypropylcellulose) (HPC)): 100 % of control
- T/C (dose: 400.0 mg/kg/injection, schedule: Q01DX001 (ip), vehicle: Klucel (hydroxypropylcellulose) (HPC)): 100 % of control

Structure (SMILES): FC(F)(F)c1cc(CN(CCCl)CCCl)cc(C(F)(F)F)c1
- T/C (dose: 12.5 mg/kg/injection, schedule: Q01DX009 (ip), vehicle: Klucel (hydroxypropylcellulose) (HPC)): 101 % of control
- T/C (dose: 12.5 mg/kg/injection, schedule: Q01DX009 (ip), vehicle: other): 116 % of control
- T/C [5]: 100 % of control
- T/C (dose: 25.0 mg/kg/injection, schedule: Q01DX009 (ip), vehicle: Klucel (hydroxypropylcellulose) (HPC)): 108 % of control and 120 % of control
- T/C [6]: 188 % of control
- T/C (dose: 50.0 mg/kg/injection, schedule: Q01DX009 (ip), vehicle: other): 150 % of control
- T/C [7]: 172 % of control
- T/C [2]: 153 % of control and 165 % of control
- T/C [8]: 194 % of control

Structure (SMILES): Cc1cc(S(=O)(=O)c2ccc(Cl)c(C)c2)ccc1Cl
- T/C [4]: 105 % of control
- T/C [9]: 100 % of control
- T/C [10]: 91 % of control

Structure (SMILES): O=C(COc1ccc(Cl)cc1Cl)Nc1ccc(F)cc1
- T/C [11]: 95 % of control
- T/C [12]: 100 % of control
- T/C [13]: 90 % of control

Structure (SMILES): CC(O)CN1CNC(=S)NC1 (centres undefined)
- T/C [7]: 99 % of control
- T/C [8]: 101 % of control
- T/C (dose: 200.0 mg/kg/injection, schedule: Q01DX009 (ip), vehicle: saline): 106 % of control

Structure (SMILES): c1ccc2c3c(ccc2c1)Sc1ccc2ccccc2c1N3
- T/C [9]: 90 % of control
- T/C [11]: 104 % of control
- T/C [10]: 90 % of control
- T/C [12]: 90 % of control
- T/C (dose: 400.0 mg/kg/injection, schedule: Q01DX009 (ip), vehicle: saline with Tween-80): 90 % of control
- T/C [13]: 90 % of control

Structure (SMILES): CC/C(=C\c1ccccc1)[N+](=O)[O-]
- T/C [5]: 96 % of control
- T/C [6]: 114 % of control and 124 % of control
- T/C [7]: 123 % of control
- T/C (dose: 50.0 mg/kg/injection, schedule: Q04DX003 (ip), vehicle: saline): 109 % of control
- T/C (dose: 100.0 mg/kg/injection, schedule: Q04DX003 (ip), vehicle: saline): 100 % of control

Structure (SMILES): C/C=C(/Cl)c1c(C)cc(C)cc1C
- T/C [9]: 108 % of control
- T/C [11]: 100 % of control
- T/C [10]: 108 % of control
- T/C [12]: 111 % of control
- T/C [13]: 103 % of control

Structure (SMILES): COc1cc(Cl)ccc1C
- T/C [4]: 100 % of control
- T/C (dose: 50.0 mg/kg/injection, schedule: Q04DX003 (ip), vehicle: saline with Tween-80): 104 % of control
- T/C (dose: 88.0 mg/kg/injection, schedule: Q01DX009 (ip), vehicle: saline with Tween-80): 108 % of control and 114 % of control
- T/C [9]: 120 % of control
- T/C [11]: 113 % of control
- T/C (dose: 132.0 mg/kg/injection, schedule: Q01DX009 (ip), vehicle: saline with Tween-80): 108 % of control
- T/C [10]: 120 % of control and 123 % of control
- T/C [12]: 118 % of control
- T/C (dose: 300.0 mg/kg/injection, schedule: Q01DX009 (ip), vehicle: saline with Tween-80): 123 % of control
